Toxic doses and inconclusive results are not listed.
Test system: CD2F1 mice, L1210 leukemia ip, survival T/C
Test: NCI In Vivo Anticancer Drug Screen. Data for tumor model L1210 Leukemia (intraperitoneal) in CD2F1 (CDF1) mice
Settings: higher = longer survival
Method in brief: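 Implant tumor; dose compound or vehicle; measure endpoint in both groups; report treated divided by control.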

## N=C(N)SCc1c2ccccc2c(CSC(=N)N)c2ccccc12
endpoint: mean survival time, dose: 0.06 mg/kg/injection, schedule: Q#B X Z (ip), vehicle: saline
  T/C: 109 % of control
endpoint: mean survival time, dose: 0.13 mg/kg/injection, schedule: Q#B X Z (ip), vehicle: saline
  T/C: 121 % of control
endpoint: mean survival time, dose: 0.39 mg/kg/injection, schedule: Q01DX Z (ip), vehicle: saline
  T/C: 115 % of control
endpoint: mean survival time, dose: 0.78 mg/kg/injection, schedule: Q01DX Z (ip), vehicle: saline
  T/C: 121 % of control
endpoint: mean survival time, dose: 1.04 mg/kg/injection, schedule: Q#B X Z (ip), vehicle: saline
  T/C: 155 % of control
endpoint: mean survival time, dose: 2.08 mg/kg/injection, schedule: Q#B X Z (ip), vehicle: saline
  T/C: 160 % of control
endpoint: mean survival time, dose: 3.13 mg/kg/injection, schedule: Q01DX Z (ip), vehicle: saline
  T/C: 151 % of control
endpoint: mean survival time, dose: 6.25 mg/kg/injection, schedule: Q01DX Z (ip), vehicle: saline
  T/C: 162 % of control
endpoint: mean survival time, dose: 8.33 mg/kg/injection, schedule: Q#B X Z (ip), vehicle: saline
  T/C: 119 % of control
endpoint: mean survival time, dose: 12.5 mg/kg/injection, schedule: Q01DX Z (ip), vehicle: saline
  T/C: 156 % of control
endpoint: mean survival time, dose: 16.66 mg/kg/injection, schedule: Q#B X Z (ip), vehicle: saline
  T/C: 98 % of control
endpoint: mean survival time, dose: 25.0 mg/kg/injection, schedule: Q01DX Z (ip), vehicle: saline
  T/C: 155 % of control
endpoint: mean survival time, dose: 50.0 mg/kg/injection, schedule: Q01DX001 (ip), vehicle: saline
  T/C: 158 % of control
endpoint: mean survival time, dose: 50.0 mg/kg/injection, schedule: Q03HX008 (ip), vehicle: saline
  T/C: 178 % of control
endpoint: mean survival time, dose: 50.0 mg/kg/injection, schedule: Q03HX016 (ip), vehicle: saline
  T/C: 175 % of control
endpoint: mean survival time, dose: 50.0 mg/kg/injection, schedule: Q06HX004 (ip), vehicle: saline
  T/C: 151 % of control
endpoint: mean survival time, dose: 50.0 mg/kg/injection, schedule: Q08DX002 (ip), vehicle: saline
  T/C: 174 % of control
endpoint: mean survival time, dose: 50.0 mg/kg/injection, schedule: Q12HX002 (ip), vehicle: saline
  T/C: 173 % of control
endpoint: mean survival time, dose: 50.0 mg/kg/injection, schedule: Q12HX004 (ip), vehicle: saline
  T/C: 189 % of control
endpoint: mean survival time, dose: 80.0 mg/kg/injection, schedule: Q01DX001 (ip), vehicle: saline
  T/C: 168 % of control
endpoint: mean survival time, dose: 100.0 mg/kg/injection, schedule: Q01DX001 (ip), vehicle: saline
  T/C: 193 % of control
endpoint: mean survival time, dose: 100.0 mg/kg/injection, schedule: Q01DX009 (ip), vehicle: saline
  T/C: 154 % of control
endpoint: mean survival time, dose: 100.0 mg/kg/injection, schedule: Q01DX Z (ip), vehicle: saline
  T/C: 124 % of control
endpoint: mean survival time, dose: 100.0 mg/kg/injection, schedule: Q03HX008 (ip), vehicle: saline
  T/C: 196 % of control
endpoint: mean survival time, dose: 100.0 mg/kg/injection, schedule: Q03HX016 (ip), vehicle: saline
  T/C: 194 % of control
endpoint: mean survival time, dose: 100.0 mg/kg/injection, schedule: Q08DX002 (ip), vehicle: saline
  T/C: 220 % of control
endpoint: mean survival time, dose: 100.0 mg/kg/injection, schedule: Q12HX002 (ip), vehicle: saline
  T/C: 239 % of control
endpoint: mean survival time, dose: 100.0 mg/kg/injection, schedule: Q12HX004 (ip), vehicle: saline
  T/C: 224 % of control
endpoint: mean survival time, dose: 125.0 mg/kg/injection, schedule: Q01DX001 (ip), vehicle: saline
  T/C: 113 % of control
endpoint: mean survival time, dose: 200.0 mg/kg/injection, schedule: Q01DX001 (ip), vehicle: saline
  T/C: 227 % of control
endpoint: mean survival time, dose: 200.0 mg/kg/injection, schedule: Q01DX009 (ip), vehicle: saline
  T/C: 106 % of control
endpoint: mean survival time, dose: 200.0 mg/kg/injection, schedule: Q01DX010 (oral), vehicle: saline
  T/C: 94 % of control
endpoint: mean survival time, dose: 200.0 mg/kg/injection, schedule: Q01DX Z (ip), vehicle: saline
  T/C: 88 % of control
endpoint: mean survival time, dose: 200.0 mg/kg/injection, schedule: Q03HX008 (ip), vehicle: saline
  T/C: 207 % of control
endpoint: mean survival time, dose: 200.0 mg/kg/injection, schedule: Q03HX016 (ip), vehicle: saline
  T/C: 204 % of control
endpoint: mean survival time, dose: 200.0 mg/kg/injection, schedule: Q06HX008 (ip), vehicle: saline
  T/C: 179 % of control
endpoint: mean survival time, dose: 200.0 mg/kg/injection, schedule: Q08DX002 (ip), vehicle: saline
  T/C: 197 % of control
endpoint: mean survival time, dose: 200.0 mg/kg/injection, schedule: Q12HX002 (ip), vehicle: saline
  T/C: 254 % of control
endpoint: mean survival time, dose: 200.0 mg/kg/injection, schedule: Q12HX004 (ip), vehicle: saline
  T/C: 158 % of control
endpoint: mean survival time, dose: 320.0 mg/kg/injection, schedule: Q01DX001 (ip), vehicle: saline
  T/C: 100 % of control
endpoint: mean survival time, dose: 400.0 mg/kg/injection, schedule: Q01DX010 (oral), vehicle: saline
  T/C: 90 % of control
endpoint: mean survival time, dose: 400.0 mg/kg/injection, schedule: Q03HX016 (ip), vehicle: saline
  T/C: 111 % of control
endpoint: mean survival time, dose: 400.0 mg/kg/injection, schedule: Q06HX004 (ip), vehicle: saline
  T/C: 183 % of control
endpoint: mean survival time, dose: 400.0 mg/kg/injection, schedule: Q06HX008 (ip), vehicle: saline
  T/C: 152 % of control
endpoint: mean survival time, dose: 400.0 mg/kg/injection, schedule: Q08DX002 (ip), vehicle: saline
  T/C: 152 % of control
endpoint: mean survival time, dose: 400.0 mg/kg/injection, schedule: Q12HX004 (ip), vehicle: saline
  T/C: 118 % of control
endpoint: mean survival time, dose: 800.0 mg/kg/injection, schedule: Q01DX010 (oral), vehicle: saline
  T/C: 88 % of control
endpoint: mean survival time, dose: 1000.0 mg/kg/injection, schedule: Q01DX001 (ip), vehicle: saline
  T/C: 162 % of control

## Cc1ccnc(NS(=O)(=O)c2ccc(N=Nc3nc4[nH]c(N)nc(=S)c4[nH]3)cc2)n1
endpoint: mean survival time, dose: 0.2 mg/kg/injection, schedule: Q01DX009 (ip), vehicle: Klucel (hydroxypropylcellulose) (HPC)
  T/C: 96 % of control
endpoint: mean survival time, dose: 0.4 mg/kg/injection, schedule: Q01DX009 (ip), vehicle: Klucel (hydroxypropylcellulose) (HPC)
  T/C: 106 % of control
endpoint: mean survival time, dose: 0.8 mg/kg/injection, schedule: Q01DX009 (ip), vehicle: Klucel (hydroxypropylcellulose) (HPC)
  T/C: 106 % of control
endpoint: mean survival time, dose: 1.56 mg/kg/injection, schedule: Q01DX009 (ip), vehicle: Klucel (hydroxypropylcellulose) (HPC)
  T/C: 203 % of control
endpoint: mean survival time, dose: 1.6 mg/kg/injection, schedule: Q01DX009 (ip), vehicle: Klucel (hydroxypropylcellulose) (HPC)
  T/C: 117 % of control
endpoint: mean survival time, dose: 3.13 mg/kg/injection, schedule: Q01DX009 (ip), vehicle: Klucel (hydroxypropylcellulose) (HPC)
  T/C: 150 % of control
endpoint: mean survival time, dose: 6.25 mg/kg/injection, schedule: Q01DX009 (ip), vehicle: Klucel (hydroxypropylcellulose) (HPC)
  T/C: 117 % of control

## Cn1c(=O)c2c(ncn2CCNCC(O)c2ccc(O)c(O)c2)n(C)c1=O (configuration not stated)
endpoint: mean survival time, dose: 12.5 mg/kg/injection, schedule: Q01DX005 (ip), vehicle: water
  T/C: 100 % of control
endpoint: mean survival time, dose: 25.0 mg/kg/injection, schedule: Q01DX005 (ip), vehicle: water
  T/C: 106 % of control
endpoint: mean survival time, dose: 50.0 mg/kg/injection, schedule: Q01DX005 (ip), vehicle: water
  T/C: 97 % of control
endpoint: mean survival time, dose: 100.0 mg/kg/injection, schedule: Q01DX005 (ip), vehicle: water
  T/C: 101 % of control
endpoint: mean survival time, dose: 200.0 mg/kg/injection, schedule: Q01DX005 (ip), vehicle: water
  T/C: 106 % of control

## CC(=O)NC(C)C(C)(C)O (configuration not stated)
endpoint: mean survival time, dose: 100.0 mg/kg/injection, schedule: Q04DX003 (ip), vehicle: saline
  T/C: 91 % of control
endpoint: mean survival time, dose: 200.0 mg/kg/injection, schedule: Q04DX003 (ip), vehicle: saline
  T/C: 101 % of control
endpoint: mean survival time, dose: 400.0 mg/kg/injection, schedule: Q04DX003 (ip), vehicle: saline
  T/C: 95 % of control

## CSc1ncnc2c(C3OC(COC(C)=O)C(OC(C)=O)C3OC(C)=O)[nH]nc12 (configuration not stated)
endpoint: median survival time, dose: 8.0 mg/kg/injection, schedule: Q01DX005 (ip), vehicle: distilled water + Tween-80
  T/C: 94 % of control
endpoint: median survival time, dose: 16.0 mg/kg/injection, schedule: Q01DX005 (ip), vehicle: distilled water + Tween-80
  T/C: 103 % of control
endpoint: median survival time, dose: 32.0 mg/kg/injection, schedule: Q01DX005 (ip), vehicle: distilled water + Tween-80
  T/C: 96 % of control
endpoint: median survival time, dose: 64.0 mg/kg/injection, schedule: Q01DX005 (ip), vehicle: distilled water + Tween-80
  T/C: 103 % of control
endpoint: median survival time, dose: 128.0 mg/kg/injection, schedule: Q01DX005 (ip), vehicle: distilled water + Tween-80
  T/C: 106 % of control

## CN(C)CCCN=Cc1cc([N+](=O)[O-])ccc1O.CN(C)CCCN=Cc1cc([N+](=O)[O-])ccc1O.[Ni+2]
endpoint: mean survival time, dose: 6.25 mg/kg/injection, schedule: Q04DX002 (ip), vehicle: saline with Tween-80
  T/C: 91 % of control
endpoint: mean survival time, dose: 12.5 mg/kg/injection, schedule: Q04DX002 (ip), vehicle: saline with Tween-80
  T/C: 91 % of control
endpoint: mean survival time, dose: 50.0 mg/kg/injection, schedule: Q04DX002 (ip), vehicle: saline with Tween-80
  T/C: 93 % of control

## [Br][Pt].[NH-]CC[N-]CC[NH-]
endpoint: mean survival time, dose: 12.5 mg/kg/injection, schedule: Q01DX009 (ip), vehicle: water
  T/C: 98 % of control
endpoint: mean survival time, dose: 25.0 mg/kg/injection, schedule: Q01DX009 (ip), vehicle: water
  T/C: 93 % of control

## CN(Cc1cnc2nc(N)nc(N)c2n1)c1ccc(C(=O)NC(CCC(=O)NC(CC(=O)O)C(=O)O)C(=O)O)cc1 (configuration not stated)
endpoint: mean survival time, dose: 5.0 mg/kg/injection, schedule: Q01DX009 (ip), vehicle: sodium bicarbonate
  T/C: 165 % of control
endpoint: mean survival time, dose: 10.0 mg/kg/injection, schedule: Q01DX009 (ip), vehicle: sodium bicarbonate
  T/C: 151 % of control

## O=C1OCC/C1=C1/CCOC1
endpoint: mean survival time, dose: 25.0 mg/kg/injection, schedule: Q01DX009 (ip), vehicle: saline with Tween-80
  T/C: 101 % of control
endpoint: mean survival time, dose: 50.0 mg/kg/injection, schedule: Q01DX009 (ip), vehicle: saline with Tween-80
  T/C: 101 % of control
